Assay results reported in PubChem BioAssay (NCI).
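Assay format: 96-well plates, 48-hour exposure. Definition used: TGI = concentration required for complete inhibition of growth.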

Tests used:
Test in all cases: NCI tumour cell line growth inhibition, 48 h
NCI-H226 lung = system: NCI-H226 lung
HCT-15 colon = system: HCT-15 colon
KM20L2 colon = system: KM20L2 colon
SF-268 CNS = system: SF-268 CNS
OVCAR-3 ovarian = system: OVCAR-3 ovarian
SNB-78 CNS = system: SNB-78 CNS
DLD-1 colon = system: DLD-1 colon
HCC-2998 colon = system: HCC-2998 colon
NCI-H23 lung = system: NCI-H23 lung
RXF 393 renal = system: RXF 393 renal
M19-MEL melanoma = system: M19-MEL melanoma
HCT-116 colon = system: HCT-116 colon
T-47D breast = system: T-47D breast
MDA-N = system: MDA-N
RPMI-8226 leukemia = system: RPMI-8226 leukemia
K-562 leukemia = system: K-562 leukemia
HS 578T breast = system: HS 578T breast
A498 renal = system: A498 renal
NCI/ADR-RES ovarian = system: NCI/ADR-RES ovarian
MDA-MB-231 breast = system: MDA-MB-231 breast

Row | SMILES | TGI (NCI-H226 lung) [µM] | TGI (HCT-15 colon) [µM] | TGI (KM20L2 colon) [µM] | TGI (SF-268 CNS) [µM] | TGI (OVCAR-3 ovarian) [µM] | TGI (SNB-78 CNS) [µM] | TGI (DLD-1 colon) [µM] | TGI (HCC-2998 colon) [µM] | TGI (NCI-H23 lung) [µM] | TGI (RXF 393 renal) [µM] | TGI (M19-MEL melanoma) [µM] | TGI (HCT-116 colon) [µM] | TGI (T-47D breast) [µM] | TGI (MDA-N) [µM] | TGI (RPMI-8226 leukemia) [µM] | TGI (K-562 leukemia) [µM] | TGI (HS 578T breast) [µM] | TGI (A498 renal) [µM] | TGI (NCI/ADR-RES ovarian) [µM] | TGI (MDA-MB-231 breast) [µM]
1 | CCCCOC(=O)CN1C(=O)c2ccccc2C1=O | > 100 | > 100 | > 100 | > 100 | > 100 | > 100 | > 100 | > 100 | > 100 | > 100 | > 100 | > 100 | – | – | – | – | – | – | – | –
2 | O=C(CCl)N1CCCCC1C1(c2cc3ccccc3[nH]2)OCCO1 (stereo not drawn) | 16.3 | 33.9 | – | 15.4 | 5.34 | – | – | 26.9 | 8.47 | 12.8 | – | 10.2 | 26 | 8.81 | 13.7 | 15.9 | 13.9 | 11.8 | 14.6 | 12.8
3 | COc1cc(CC2CCc3nc(N)nc(N)c3C2)cc(OC)c1OC (stereo not drawn) | > 66.1 | > 100 | – | 13.4 | > 100 | – | – | > 46.9 | > 72.5 | 11.9 | – | – | > 100 | – | > 68.4 | > 100 | > 100 | > 87.8 | – | > 100
4 | C#CCCCC(=C)C[C@H](OCc1ccccc1)[C@H]1OC(=O)[C@@H]1C | > 100 | > 100 | – | > 100 | > 100 | – | – | > 100 | > 100 | > 100 | – | – | – | > 100 | 83.7 | – | – | > 100 | > 100 | 63.3
